No end group written: not given here.
Legend:
[1] = test system: UM-UC-3 bladder cancer cell line; assay: MTT cytotoxicity assay, UM-UC-3 bladder carcinoma cell line; type: cell-based, human; settings: UM-UC-3 cells, 1.0 and 10 μM, 24 h
Source text: ATCC: UM-UC-3: Human cell line with epithelial-like characteristics established from a high grade invasive urinary bladder carcinoma of a patient. This is a hypertriploid human cell line and IFN non responsive. This cell line is tumorigenic in nature.

[2] = test system: U87 human glioblastoma; settings: U87 cells (brain cancer), 24 h, MTT; MPT-63 at 1, 5 and 10 μM
[3] = test system: HepG2 liver cancer; settings: HepG2 cells (liver cancer), 24 h, MTT; MPT-63 at 1, 5 and 10 μM
[4] = test system: MDA-MB-231 breast cancer; settings: MDA-MB-231 cells (breast cancer), 24 h, MTT; MPT-63 at 1, 5 and 10 μM
[5] = test system: HCT 116 colorectal cancer cell line; type: cell-based, human; settings: HCT 116 cells, compared with MB30, MTT
Source text: ATCC HCT 116: Human cell line with epithelial-like characteristics established from colorectal carcinoma from an adult patient. The cells are positive for keratin by immunoperoxidase staining. HCT 116 cells are positive for transforming growth factor beta 1 (TGF beta 1) and beta 2 (TGF beta 2) expression. This line has a mutation in codon 13 of the ras protooncogene, and can be used as a positive control for PCR assays of mutation in this codon.

[6] = test system: SiHa cervix cancer cell line; settings: SiHa cells, compared with MB30, MTT
Method: (§1) The viability of the cells was estimated by using MTT assay on the basis of formazan formed, which was detected spectrophotometrically by optical density at 570 nm at 24 h, 48 h and 72 h [Bar-mean±S.E.].
(§2) MTT [3-(4, 5-dimethylthiazol-2-yl)-2,5-diphenyl tetrazolium bromide] assay was carried out for measurement of the cytotoxicity of different anticancer peptides. The water soluble tetrazolium salt, MTT [3-(4,5-dimethylthiazol-2-yl)-2,5-diphenyl tetrazolium bromide] is metabolized to the water insoluble formazan by intact mitochondrial dehydrogenases. The formazan is then solubilized by adding 2-propanol+40 mM HCl for 4 h incubation. […] The viability of the cells was estimated on the basis of formazan formed, which was detected spectrophotometrically by optical density at 570 nm at 24 h, 48 h and 72 h. At every time point such as 24 h, 48 h and 72 h, 1×10^4 cells were seeded without the peptide in triplicate in each plate for a given treatment of peptide. This was used as control cytotoxicity levels to calculate the percent cell cytotoxicity of every peptide treatment. […] All the experiments were carried out in triplicates and repeated three times.

[7] = test system: CaSki cervix cancer cell line; settings: CaSki cells, compared with MB30, MTT
Method: as §1
All cell lines were grown under standard conditions in humidified 37° C. incubator in 5% CO2 as described earlier (Garg et al., 2009; Kanojia et al., 2010).
as §2

GQVWEATATVNAIRGSVTPAVSQFNARTAD [MB30]
cytotoxicity levels (in words) [1]: higher cytotoxicity levels than the other peptide | cytotoxicity (in words) [2]: better cytotoxicity in comparison to the full length protein MPT-63 | cytotoxicity (in words) [3]: better cytotoxicity in comparison to the full length protein MPT-63 | cytotoxicity (in words) [4]: better cytotoxicity in comparison to the full length protein MPT-63

TAGIKLTVPIEKFPVTTQTFVVG [TG23]
cytotoxicity levels (in words) [1]: higher cytotoxicity levels than the other peptide | cytotoxicity (in words) [5]: less cytotoxicity | cytotoxicity (in words) [6]: less cytotoxicity | cytotoxicity (in words) [7]: less cytotoxicity

NHFTLKCPKTALTEPPTLAY [TG20]
cytotoxicity (in words) [5]: less cytotoxicity | cytotoxicity (in words) [6]: less cytotoxicity | cytotoxicity (in words) [7]: less cytotoxicity

B1: MPT-63 (protein, listed as Mycobacterium bovis)
chain: MKLTTMIKTAVAVVAMAAIATFAEPVALAAYPITGKLGSELTMTDTVGQVVLGWKVSDLKSSTAVIPGYPVAGQVWEATATVNAIRGSVTPAVSQFNARTADGINYRVLWQAAGPDTISGATIPQGEQSTGKIYFDVTGPSPTIVAMNNGMQDLLIWEP
cytotoxicity (in words) [2]: shown cytotoxicity | cytotoxicity (in words) [3]: shown cytotoxicity | cytotoxicity (in words) [4]: shown cytotoxicity
